Source: patent US20250304620A1, “ANTIMICROBIAL PEPTIDE AND APPLICATION THEREOF” (priority 2023, published 2025)
Marks after values point to notes of the source that are not given here. Non-standard residues stand in square brackets, D forms with d. Residues, ends and D or L forms follow the SMILES beside them. d2Nal = N[C@H](Cc1ccc2ccccc2c1)C(=O)O

What was measured:
rabbit red blood cells = format: cell-based; settings: red cells of rabbit, 1 h
[1] = system: Pseudomonas aeruginosa ATCC 27853; experiment: Injectable formulations on mice infected with peritonitis; format: in vivo, ICR mice; settings: twice a day for 3 days; for Number of mice that died on each day after infection: day 1 / Number of mice that died on each day after infection: day 2 / Number of mice that died on each day after infection: day 3 / Number of mice that died on each day after infection: day 4 / Number of mice that died on each day after infection: day 5 / Average survival times (Days): n = 10; for Average survival times (Days): observed for 14 d; for survival time of mice infected with Pseudomonas aeruginosa: tail vein, observed 14 d
Procedure, shortened: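 ICR mice of both sexes (10 per group) infected intraperitoneally with 0.2 mL P. aeruginosa ATCC 27853 at 1×10^9 CFU/mL. Injectable formulations dosed by body weight via tail vein twice daily for 3 days; deaths and survival time recorded over 14 d.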

[2] = system: Escherichia coli ATCC 25922; experiment: Oral formulations on mice with systemic bacterial infection; format: in vivo, ICR mice; settings: three times a day for 7 days; for Number of mice that died on each day after infection: day 4 / Number of mice that died on each day after infection: day 5 / Number of mice that died on each day after infection: day 6 / Number of mice that died on each day after infection: day 7 / Number of mice that died on each day after infection: day 8 / Average survival times (Days): n = 10; for Average survival times (Days): observed for 14 d; for survival time of mice infected with Escherichia coli: gavage, observed 14 d
Procedure, shortened: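 ICR mice of both sexes, 10 per group, infected i.p. with 0.2 mL E. coli ATCC 25922 at 1×10^7 CFU/mL. Compounds gavaged by body weight immediately after infection, three times daily for 7 days; deaths and survival time recorded over 14 d observation.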

Row | Compound | MHC (minimum hemolytic concentration, lowest concentration causing 10% hemolysis) (rabbit red blood cells) [µg/mL] | Number of mice that died on each day after infection: day 1 ([1]; 1 mg/kg via tail vein) [Mouse] | Number of mice that died on each day after infection: day 2 ([1]; 1 mg/kg via tail vein) [Mouse] | Number of mice that died on each day after infection: day 3 ([1]; 1 mg/kg via tail vein) [Mouse] | Number of mice that died on each day after infection: day 4 ([1]; 1 mg/kg via tail vein) [Mouse] | Number of mice that died on each day after infection: day 5 ([1]; 1 mg/kg via tail vein) [Mouse] | Average survival times (Days) ([1]; 1 mg/kg via tail vein) | Number of mice that died on each day after infection: day 4 ([2]; 1 mg/kg gavage) [Mouse] | Number of mice that died on each day after infection: day 5 ([2]; 1 mg/kg gavage) [Mouse] | Number of mice that died on each day after infection: day 6 ([2]; 1 mg/kg gavage) [Mouse] | Number of mice that died on each day after infection: day 7 ([2]; 1 mg/kg gavage) [Mouse] | Number of mice that died on each day after infection: day 8 ([2]; 1 mg/kg gavage) [Mouse] | Average survival times (Days) ([2]; 1 mg/kg gavage) | Number of mice that died on each day after infection: day 1 ([1]; 0.2 mg/kg via tail vein) [Mouse] | Number of mice that died on each day after infection: day 2 ([1]; 0.2 mg/kg via tail vein) [Mouse] | Number of mice that died on each day after infection: day 3 ([1]; 0.2 mg/kg via tail vein) [Mouse] | Number of mice that died on each day after infection: day 4 ([1]; 0.2 mg/kg via tail vein) [Mouse] | Number of mice that died on each day after infection: day 5 ([1]; 0.2 mg/kg via tail vein) [Mouse] | Average survival times (Days) ([1]; 0.2 mg/kg via tail vein) | Number of mice that died on each day after infection: day 1 ([1]; 5 mg/kg via tail vein) [Mouse] | also measured
1 | CC(=O)N[C@H](CCCNC(=N)N)C(=O)N[C@H](CCCCN)C(=O)N[C@@H](C(=O)N[C@@H](C(=O)N[C@H](Cc1ccc2ccccc2c1)C(=O)N[C@H](CCCNC(=N)N)C(=O)N[C@@H](C(=O)N[C@H](CCCCN)C(=O)N[C@H](Cc1ccc2ccccc2c1)C(=O)N[C@H](CCCNC(=N)N)C(=O)N[C@H](CCCCN)C(N)=O)C(C)C)C(C)C)C(C)C [LV-16] (Ac-[dR][dK][dV][dV][d2Nal][dR][dV][dK][d2Nal][dR][dK]-NH2) | >1000 | 2 | 1 | 1 | 1 | 0 | 8.1** Days | 1 | 1 | 1 | 0 | 2 | 10.1*** Days |  |  |  |  |  |  |  | 
2 | CC(=O)N[C@H](CCCCN)C(=O)N[C@H](CCCCN)C(=O)N[C@H](CC(C)C)C(=O)N[C@H](CC(C)C)C(=O)N[C@H](Cc1ccc2ccccc2c1)C(=O)N[C@H](CCCCN)C(=O)N[C@H](CC(C)C)C(=O)N[C@H](CCCCN)C(=O)N[C@H](Cc1ccc2ccccc2c1)C(=O)N[C@H](CCCCN)C(=O)N[C@H](CCCCN)C(N)=O [LV-17] (Ac-[dK][dK][dL][dL][d2Nal][dK][dL][dK][d2Nal][dK][dK]-NH2) | >1000 | 0 | 2 | 0 | 1 | 0 | 10.6**** Days | 1 | 0 | 2 | 1 | 0 | 10.7*** Days | 1 | 2 | 1 | 1 | 1 | 7.3** Days | 0 | Number of mice that died on each day after infection: day 2 ([1]; 5 mg/kg via tail vein): 2 Mouse; Number of mice that died on each day after infection: day 3 ([1]; 5 mg/kg via tail vein): 1 Mouse; Number of mice that died on each day after infection: day 4 ([1]; 5 mg/kg via tail vein): 1 Mouse; Number of mice that died on each day after infection: day 5 ([1]; 5 mg/kg via tail vein): 0 Mouse; Average survival times (Days) ([1]; 5 mg/kg via tail vein): 9.5*** Days; survival time of mice infected with Pseudomonas aeruginosa [1]: superior to those of the Levofloxacin group; Number of mice that died on each day after infection: day 4 ([2]; 0.2 mg/kg gavage): 1 Mouse; Number of mice that died on each day after infection: day 5 ([2]; 0.2 mg/kg gavage): 2 Mouse; Number of mice that died on each day after infection: day 6 ([2]; 0.2 mg/kg gavage): 1 Mouse; Number of mice that died on each day after infection: day 7 ([2]; 0.2 mg/kg gavage): 1 Mouse; Number of mice that died on each day after infection: day 8 ([2]; 0.2 mg/kg gavage): 2 Mouse; Average survival times (Days) ([2]; 0.2 mg/kg gavage): 8.5** Days; Number of mice that died on each day after infection: day 4 ([2]; 5 mg/kg gavage): 2 Mouse; Number of mice that died on each day after infection: day 5 ([2]; 5 mg/kg gavage): 1 Mouse; Number of mice that died on each day after infection: day 6 ([2]; 5 mg/kg gavage): 0 Mouse; Number of mice that died on each day after infection: day 7 ([2]; 5 mg/kg gavage): 1 Mouse; Number of mice that died on each day after infection: day 8 ([2]; 5 mg/kg gavage): 1 Mouse; Average survival times (Days) ([2]; 5 mg/kg gavage): 9.8** Days; survival time of mice infected with Escherichia coli [2]: superior to those of the Levofloxacin group
3 | CC(=O)N[C@H](CCCNC(=N)N)C(=O)N[C@H](CCCCN)C(=O)N[C@H](CC(C)C)C(=O)N[C@H](CC(C)C)C(=O)N[C@H](Cc1ccc2ccccc2c1)C(=O)N[C@H](CCCCN)C(=O)N[C@H](CC(C)C)C(=O)N[C@H](CCCCN)C(=O)N[C@H](Cc1ccc2ccccc2c1)C(=O)N[C@H](CCCCN)C(=O)N[C@H](CCCNC(=N)N)C(N)=O [LV-18] (Ac-[dR][dK][dL][dL][d2Nal][dK][dL][dK][d2Nal][dK][dR]-NH2) | >1000 | 0 | 1 | 0 | 1 | 1 | 10.9**** Days | 0 | 1 | 0 | 1 | 0 | 12.4**** Days | 2 | 1 | 1 | 1 | 1 | 7.2** Days | 0 | Number of mice that died on each day after infection: day 2 ([1]; 5 mg/kg via tail vein): 2 Mouse; Number of mice that died on each day after infection: day 3 ([1]; 5 mg/kg via tail vein): 1 Mouse; Number of mice that died on each day after infection: day 4 ([1]; 5 mg/kg via tail vein): 0 Mouse; Number of mice that died on each day after infection: day 5 ([1]; 5 mg/kg via tail vein): 0 Mouse; Average survival times (Days) ([1]; 5 mg/kg via tail vein): 10.5**** Days; survival time of mice infected with Pseudomonas aeruginosa [1]: superior to those of the Levofloxacin group; Number of mice that died on each day after infection: day 4 ([2]; 0.2 mg/kg gavage): 0 Mouse; Number of mice that died on each day after infection: day 5 ([2]; 0.2 mg/kg gavage): 1 Mouse; Number of mice that died on each day after infection: day 6 ([2]; 0.2 mg/kg gavage): 2 Mouse; Number of mice that died on each day after infection: day 7 ([2]; 0.2 mg/kg gavage): 1 Mouse; Number of mice that died on each day after infection: day 8 ([2]; 0.2 mg/kg gavage): 0 Mouse; Average survival times (Days) ([2]; 0.2 mg/kg gavage): 10.8*** Days; Number of mice that died on each day after infection: day 4 ([2]; 5 mg/kg gavage): 0 Mouse; Number of mice that died on each day after infection: day 5 ([2]; 5 mg/kg gavage): 1 Mouse; Number of mice that died on each day after infection: day 6 ([2]; 5 mg/kg gavage): 2 Mouse; Number of mice that died on each day after infection: day 7 ([2]; 5 mg/kg gavage): 0 Mouse; Number of mice that died on each day after infection: day 8 ([2]; 5 mg/kg gavage): 0 Mouse; Average survival times (Days) ([2]; 5 mg/kg gavage): 11.5**** Days; survival time of mice infected with Escherichia coli [2]: superior to those of the Levofloxacin group
4 | CC(=O)N[C@H](CCCCN)C(=O)N[C@H](CCCCN)C(=O)N[C@H](CC(C)C)C(=O)N[C@H](CC(C)C)C(=O)N[C@H](Cc1ccc2ccccc2c1)C(=O)N[C@H](CCCNC(=N)N)C(=O)N[C@H](CC(C)C)C(=O)N[C@H](CCCCN)C(=O)N[C@H](Cc1ccc2ccccc2c1)C(=O)N[C@H](CCCNC(=N)N)C(=O)N[C@H](CCCCN)C(N)=O [LV-19] (Ac-[dK][dK][dL][dL][d2Nal][dR][dL][dK][d2Nal][dR][dK]-NH2) | >1000 | 0 | 0 | 1 | 0 | 2 | 11.1**** Days | 0 | 1 | 1 | 1 | 0 | 11.6**** Days | 3 | 2 | 0 | 0 | 0 | 7.7** Days | 1 | Number of mice that died on each day after infection: day 2 ([1]; 5 mg/kg via tail vein): 0 Mouse; Number of mice that died on each day after infection: day 3 ([1]; 5 mg/kg via tail vein): 2 Mouse; Number of mice that died on each day after infection: day 4 ([1]; 5 mg/kg via tail vein): 0 Mouse; Number of mice that died on each day after infection: day 5 ([1]; 5 mg/kg via tail vein): 0 Mouse; Average survival times (Days) ([1]; 5 mg/kg via tail vein): 10.5**** Days; survival time of mice infected with Pseudomonas aeruginosa [1]: superior to those of the Levofloxacin group; Number of mice that died on each day after infection: day 4 ([2]; 0.2 mg/kg gavage): 0 Mouse; Number of mice that died on each day after infection: day 5 ([2]; 0.2 mg/kg gavage): 2 Mouse; Number of mice that died on each day after infection: day 6 ([2]; 0.2 mg/kg gavage): 1 Mouse; Number of mice that died on each day after infection: day 7 ([2]; 0.2 mg/kg gavage): 2 Mouse; Number of mice that died on each day after infection: day 8 ([2]; 0.2 mg/kg gavage): 1 Mouse; Average survival times (Days) ([2]; 0.2 mg/kg gavage): 9.4** Days; Number of mice that died on each day after infection: day 4 ([2]; 5 mg/kg gavage): 0 Mouse; Number of mice that died on each day after infection: day 5 ([2]; 5 mg/kg gavage): 2 Mouse; Number of mice that died on each day after infection: day 6 ([2]; 5 mg/kg gavage): 1 Mouse; Number of mice that died on each day after infection: day 7 ([2]; 5 mg/kg gavage): 1 Mouse; Number of mice that died on each day after infection: day 8 ([2]; 5 mg/kg gavage): 0 Mouse; Average survival times (Days) ([2]; 5 mg/kg gavage): 10.7*** Days; survival time of mice infected with Escherichia coli [2]: superior to those of the Levofloxacin group
